The assay addresses T1, rat ROMK (Rattus norvegicus, UniProt P35560).
T1 construct: expressed in transfected cells; host or cells: 293T cell line 208-4 (lentiviral transduction, GFP coexpressed)
T1 sequence (P35560 1-391): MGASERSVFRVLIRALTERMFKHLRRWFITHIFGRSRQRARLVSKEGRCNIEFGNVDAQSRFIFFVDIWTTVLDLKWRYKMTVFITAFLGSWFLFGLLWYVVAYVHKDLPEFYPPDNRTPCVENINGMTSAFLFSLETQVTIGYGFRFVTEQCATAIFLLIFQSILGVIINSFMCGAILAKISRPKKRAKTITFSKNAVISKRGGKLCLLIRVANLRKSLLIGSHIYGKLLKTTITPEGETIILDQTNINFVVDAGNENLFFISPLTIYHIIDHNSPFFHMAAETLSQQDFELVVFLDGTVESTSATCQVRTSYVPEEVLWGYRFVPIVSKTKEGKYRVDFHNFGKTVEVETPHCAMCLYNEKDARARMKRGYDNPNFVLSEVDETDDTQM
Put plainly: Whole-cell patch-clamp of ROMK currents in 208–4 cells. In kind it is cell-based. Conditions: blockade at 1 μM estimated from fitted Hill curve (four parameters), whole-cell conductance, n = 3–6, read-out: Activity (ROMK channel blocking activity, percentage of blockade at 1 μM). An excerpt:
The cDNAs for rat ROMK and mouse GIRK1, 2, and 4 were generously donated by Drs Mikio Hayashi (Kansai Medical University) and David Weaver (Vanderbilt University). The ROMK channels were stably expressed by a cell line, 208–4, which was transduced with lentiviral vectors coexpressing the channel and green fluorescent protein (GFP) as described previously. The GIRK genes, cloned in a pCMV6 plasmid (Origene Technologies Inc, Rockville, MD), were transiently expressed in 293T cells with calcium phosphate transfection. GIRK channel currents were recorded 24 h after transfection.
Cells grown on small cover glasses (3 × 18 mm) were placed in a recording chamber. Whole-cell currents were recorded in Tyrode solution using an Axopatch 200B amplifier (Axon Instruments, Foster City, CA) at 25°C. Tyrode solution contained (in mM): NaCl 140, KCl 5.4, NaH2PO4 0.33, CaCl2 2, MgCl2 1, HEPES 5, and glucose 5.5 (pH 7.4 adjusted with NaOH). High K^+ Tyrode solution (KCL 50 mM, NaCl 95 mM, and others were the same as standard Tyrode solution) was used for the recording of GIRK channels. Patch pipettes pulled from borosilicate glass (Narishige, Tokyo, Japan) were filled with an internal solution containing (in mM): K-aspartate 66, KCl 71.5, KH2PO4 1, EGTA 5, HEPES 5, and MgATP 3 (pH 7.4 adjusted with KOH). Recordings were digitized at 10 kHz, and low-pass filtered at 2 kHz. ROMK, Kir2.1, and GIRK currents were evoked with step pulses of 400 msec from -150 mV to 10 mV in 10 mV increments from a holding potential of -70 mV. Whole-cell currents were recorded 60 sec after the peptide application and those from 100 to 300 msec of the step pulses were averaged. Liquid junction potential or capacitive transient was not corrected or compensated. Whole-cell conductance was calculated as the slope of the current-voltage (I-V) relationship from -140 mV to -100 mV and normalized to the initial value (0 μM TPN), in which BaCl2-resistant current was subtracted and indicted as a percentage.

Bridge positions count the residues as written; N and C are the ends. Ends that are not written are not given here. Peptide text beside a SMILES is read from it. Bounds are passed on as bounds.

For `CC[C@H](C)[C@@H]1NC(=O)[C@H](CCCNC(=N)N)NC(=O)[C@H](CCCNC(=N)N)NC(=O)[C@H](CC(N)=O)NC(=O)[C@@H]2CSSC[C@@H](C(=O)NCC(=O)N[C@@H](CCCCN)C(=O)N[C@@H](CCCCN)C(N)=O)NC(=O)[C@H](CCCCN)NC(=O)[C@H](CCCCN)NC(=O)[C@H](Cc3c[nH]c4ccccc34)NC(=O)[C@H](CSSC[C@H](NC(=O)[C@H](CC(C)C)NC(=O)[C@H](C)N)C(=O)N[C@@H](CC(N)=O)C(=O)N2)NC(=O)[C@H](CCC(N)=O)NC(=O)[C@H](C)NC(=O)[C@@H]2CCCN2C(=O)[C@H]([C@@H](C)CC)NC1=O` [Peptide 63, TPN-RQ(H12A)] (H-ALCNCNRRIIPAQCWKKCGKK-NH2; disulfide 3-14, 5-18), the inhibition at 1 µM was 40 to 60%. Take `CC[C@H](C)[C@@H]1NC(=O)[C@H](CCCNC(=N)N)NC(=O)[C@H](CCCNC(=N)N)NC(=O)[C@H](CC(N)=O)NC(=O)[C@@H]2CSSC[C@@H](C(=O)NCC(=O)N[C@@H](CCCCN)C(=O)N[C@@H](CCCCN)C(N)=O)NC(=O)[C@H](CCCCN)NC(=O)[C@H](CCCCN)NC(=O)[C@H](Cc3c[nH]c4ccccc34)NC(=O)[C@H](CSSC[C@H](NC(=O)[C@H](CC(C)C)NC(=O)[C@H](C)N)C(=O)N[C@@H](CC(N)=O)C(=O)N2)NC(=O)[C@H](C)NC(=O)[C@H](Cc2c[nH]cn2)NC(=O)[C@@H]2CCCN2C(=O)[C@H]([C@@H](C)CC)NC1=O` [Peptide 64, TPN-RQ(Q13A)] (H-ALCNCNRRIIPHACWKKCGKK-NH2; disulfide 3-14, 5-18): the inhibition at 1 µM is 20 to 40%. Consider `CC[C@H](C)[C@@H]1NC(=O)[C@H](CCCNC(=N)N)NC(=O)[C@H](CCCNC(=N)N)NC(=O)[C@H](CC(N)=O)NC(=O)[C@@H]2CSSC[C@@H](C(=O)NCC(=O)N[C@@H](CCCCN)C(=O)N[C@@H](CCCCN)C(N)=O)NC(=O)[C@H](CCCCN)NC(=O)[C@H](CCCCN)NC(=O)[C@H](C)NC(=O)[C@H](CSSC[C@H](NC(=O)[C@H](CC(C)C)NC(=O)[C@H](C)N)C(=O)N[C@@H](CC(N)=O)C(=O)N2)NC(=O)[C@H](CCC(N)=O)NC(=O)[C@H](Cc2c[nH]cn2)NC(=O)[C@@H]2CCCN2C(=O)[C@H]([C@@H](C)CC)NC1=O` [Peptide 65, TPN-RQ(W15A)] (H-ALCNCNRRIIPHQCAKKCGKK-NH2; disulfide 3-14, 5-18), for which the inhibition at 1 µM was 20 to 40%. Take `CC[C@H](C)[C@@H]1NC(=O)[C@H](CCCNC(=N)N)NC(=O)[C@H](CCCNC(=N)N)NC(=O)[C@H](CC(N)=O)NC(=O)[C@@H]2CSSC[C@@H](C(=O)NCC(=O)N[C@@H](CCCCN)C(=O)N[C@@H](CCCCN)C(N)=O)NC(=O)[C@H](C)NC(=O)[C@H](C)NC(=O)[C@H](Cc3c[nH]c4ccccc34)NC(=O)[C@H](CSSC[C@H](NC(=O)[C@H](CC(C)C)NC(=O)[C@H](C)N)C(=O)N[C@@H](CC(N)=O)C(=O)N2)NC(=O)[C@H](CCC(N)=O)NC(=O)[C@H](Cc2c[nH]cn2)NC(=O)[C@@H]2CCCN2C(=O)[C@H]([C@@H](C)CC)NC1=O` [Peptide 66, TPN-RQ(K16A/K17A)] (H-ALCNCNRRIIPHQCWAACGKK-NH2; disulfide 3-14, 5-18): the inhibition at 1 µM was 20 to 40%. On to `CC[C@H](C)[C@@H]1NC(=O)[C@H](CCCNC(=N)N)NC(=O)[C@H](CCCNC(=N)N)NC(=O)[C@H](CC(N)=O)NC(=O)[C@@H]2CSSC[C@@H](C(=O)N[C@@H](C)C(=O)N[C@@H](CCCCN)C(=O)N[C@@H](CCCCN)C(N)=O)NC(=O)[C@H](CCCCN)NC(=O)[C@H](CCCCN)NC(=O)[C@H](Cc3c[nH]c4ccccc34)NC(=O)[C@H](CSSC[C@H](NC(=O)[C@H](CC(C)C)NC(=O)[C@H](C)N)C(=O)N[C@@H](CC(N)=O)C(=O)N2)NC(=O)[C@H](CCC(N)=O)NC(=O)[C@H](Cc2c[nH]cn2)NC(=O)[C@@H]2CCCN2C(=O)[C@H]([C@@H](C)CC)NC1=O` [Peptide 67, TPN-RQ(G19A)] (H-ALCNCNRRIIPHQCWKKCAKK-NH2; disulfide 3-14, 5-18), for which the inhibition at 1 µM is 60 to 80%.

Turning to `CC[C@H](C)[C@@H]1NC(=O)[C@H](CCCNC(=N)N)NC(=O)[C@H](CCCNC(=N)N)NC(=O)[C@H](CC(N)=O)NC(=O)[C@@H]2CSSC[C@@H](C(=O)NCC(=O)N[C@@H](C)C(=O)N[C@@H](CCCCN)C(N)=O)NC(=O)[C@H](CCCCN)NC(=O)[C@H](CCCCN)NC(=O)[C@H](Cc3c[nH]c4ccccc34)NC(=O)[C@H](CSSC[C@H](NC(=O)[C@H](CC(C)C)NC(=O)[C@H](C)N)C(=O)N[C@@H](CC(N)=O)C(=O)N2)NC(=O)[C@H](CCC(N)=O)NC(=O)[C@H](Cc2c[nH]cn2)NC(=O)[C@@H]2CCCN2C(=O)[C@H]([C@@H](C)CC)NC1=O` [Peptide 68, TPN-RQ(K20A)] (H-ALCNCNRRIIPHQCWKKCGAK-NH2; disulfide 3-14, 5-18), the inhibition at 1 µM was 40 to 60%. With `CC[C@H](C)[C@@H]1NC(=O)[C@H](CCCNC(=N)N)NC(=O)[C@H](CCCNC(=N)N)NC(=O)[C@H](CC(N)=O)NC(=O)[C@@H]2CSSC[C@@H](C(=O)NCC(=O)N[C@@H](CCCCN)C(=O)N[C@@H](C)C(N)=O)NC(=O)[C@H](CCCCN)NC(=O)[C@H](CCCCN)NC(=O)[C@H](Cc3c[nH]c4ccccc34)NC(=O)[C@H](CSSC[C@H](NC(=O)[C@H](CC(C)C)NC(=O)[C@H](C)N)C(=O)N[C@@H](CC(N)=O)C(=O)N2)NC(=O)[C@H](CCC(N)=O)NC(=O)[C@H](Cc2c[nH]cn2)NC(=O)[C@@H]2CCCN2C(=O)[C@H]([C@@H](C)CC)NC1=O` [Peptide 69, TPN-RQ(K21A)] (H-ALCNCNRRIIPHQCWKKCGKA-NH2; disulfide 3-14, 5-18), the inhibition at 1 µM is 40 to 60%. For the molecule `CC[C@H](C)[C@@H]1NC(=O)[C@H](CCCNC(=N)N)NC(=O)[C@H](CCCNC(=N)N)NC(=O)[C@H](CC(N)=O)NC(=O)[C@@H]2CSSC[C@@H](C(=O)NCC(=O)N[C@@H](CCCCN)C(=O)N[C@@H](CCCCN)C(N)=O)NC(=O)[C@H](CCCCN)NC(=O)[C@H](CCCCN)NC(=O)[C@H](Cc3c[nH]c4ccccc34)NC(=O)[C@H](CSSC[C@H](N)C(=O)N[C@@H](CC(N)=O)C(=O)N2)NC(=O)[C@H](CCC(N)=O)NC(=O)[C@H](Cc2c[nH]cn2)NC(=O)[C@@H]2CCCN2C(=O)[C@H]([C@@H](C)CC)NC1=O` [Peptide 70, TPN-RQ(Δ1A/Δ2L)] (H-CNCNRRIIPHQCWKKCGKK-NH2; disulfide 1-12, 3-16), the inhibition at 1 µM was 60 to 80%. The figure for `CC[C@H](C)[C@@H]1NC(=O)[C@H](CCCNC(=N)N)NC(=O)[C@H](CCCNC(=N)N)NC(=O)[C@H](CC(N)=O)NC(=O)[C@@H]2CSSC[C@@H](C(=O)NCC(N)=O)NC(=O)[C@H](CCCCN)NC(=O)[C@H](CCCCN)NC(=O)[C@H](Cc3c[nH]c4ccccc34)NC(=O)[C@H](CSSC[C@H](NC(=O)[C@H](CC(C)C)NC(=O)[C@H](C)N)C(=O)N[C@@H](CC(N)=O)C(=O)N2)NC(=O)[C@H](CCC(N)=O)NC(=O)[C@H](Cc2c[nH]cn2)NC(=O)[C@@H]2CCCN2C(=O)[C@H]([C@@H](C)CC)NC1=O` [Peptide 71, TPN-RQ(Δ20K/Δ21K)] (H-ALCNCNRRIIPHQCWKKCG-NH2; disulfide 3-14, 5-18) is 20 to 40%; for “ARIIPHQK-NH2 [Peptide 23, TPN-RQ 7-13(R7A) + K]” it is less than 20%.

As to CNRIIIPH-NH2 [Peptide 8, TPN 5–12], the inhibition at 1 µM was less than 20%.

Take IIIPHMCW-NH2 [Peptide 11, TPN 8–15]: the inhibition at 1 µM was less than 20%.

On to IIPHMCWK-NH2 [Peptide 12, TPN 9–16], for which the inhibition at 1 µM was less than 20%. The figure for IPHMCWKK-NH2 [Peptide 13, TPN 10–17] is less than 20%; for NCNRIIIP-NH2 [Peptide 7, TPN 4–11] it is less than 20%; for NRIIIPHM-NH2 [Peptide 9, TPN 6–13] it is less than 20%. As for “RAIIPHQK-NH2 [Peptide 24, TPN-RQ 7-13(R8A) + K]”, the inhibition at 1 µM is less than 20%. In the case of RIIIPHMC-NH2 [Peptide 10, TPN 7–14], the inhibition at 1 µM was less than 20%. With RIIIPHQC-NH2 [Peptide 18, TPN-Q 7–14], the inhibition at 1 µM was less than 20%. As to “RIIIPHQK-NH2 [Peptide 21, TPN-Q 7–13 + K]”, the inhibition at 1 µM was less than 20%.

“RRAIPHQK-NH2 [Peptide 25, TPN-RQ 7-13(I9A) + K]”: the inhibition at 1 µM is less than 20%.

“RRIAPHQK-NH2 [Peptide 26, TPN-RQ 7-13(I10A) + K]”: the inhibition at 1 µM was less than 20%.

The values are drawn from paper PMC7665585, “Antidepressive effect of an inward rectifier K^+ channel blocker peptide, tertiapin-RQ” (PLoS ONE, 2020).
